# Where a name gives a salt, the structure may show the parent alone. Read-outs that look alike come from different tables or passages of the source.
# How the values were obtained:
# Assay in all cases: MIC assay with different strains, Example 35
# Assay type in all cases: cell-based
# [1] = system: Acinetobacter baumannii (ATCC 19606)
# Method: (§1) The minimum inhibitory concentration (MIC) is used to determine the lowest concentration of a test product claiming antimicrobial effects that will inhibit growth of a microorganism. Each microbial suspension was adjusted approximately 10^7 to 10^8 colony forming units (CFU) per mL and labeled as the stock suspension. The stock suspension was further diluted to 1:200 in Mueller Hinton broth to obtain a test sample having a concentration of […]. The test sample was then tested for MIC as described in M202.R02. After incubation, each tube was examined for turbidity, which indicated growth or no growth. For the tubes where the product rendered the media turbid, an aliquot of the media was streaked onto agar plates to confirm growth or lack of growth.
# [2] = system: Bacillus subtilis (ATCC 6633)
# Method: as §1
# [3] = system: Escherichia coli (ATCC 11229)
# Method: as §1
# [4] = system: Escherichia coli ATCC 25922; details: for MIC: Example 35
# Method: as §1
# [5] = system: Micrococcus luteus (ATCC 4698)
# Method: as §1
# [6] = system: Staphylococcus aureus (ATCC 6538)
# Method: as §1
# [7] = system: Staphylococcus epidermidis (ATCC 12228)
# Method: as §1
# [8] = system: Enterococcus faecium (ATCC 19434)
# Method: as §1
compound,measurement,setting,value
"CCCCCCCCCCCCOC(=O)C(C)N(C)C (stereo not shown) [Nex-05, Dodecyl 2-(dimethylamino)propanoate hydrochloride]",MIC,[1]; Example 35,0.313%
same,Growth/no growth,[1]; Sample Concentration 0.039%,Growth
same,Growth/no growth,[1]; Sample Concentration 0.078%,Growth
same,Growth/no growth,[1]; Sample Concentration 0.156%,Growth
same,MIC,[2]; Example 35,0.313%
same,Growth/no growth,[2]; Sample Concentration 0.039%,Growth
same,Growth/no growth,[2]; Sample Concentration 0.078%,Growth
same,Growth/no growth,[2]; Sample Concentration 0.156%,Growth
same,MIC,[3]; Example 35,0.625%
same,Growth/no growth,[3]; Sample Concentration 0.039%,Growth
same,Growth/no growth,[3]; Sample Concentration 0.078%,Growth
same,Growth/no growth,[3]; Sample Concentration 0.156%,Growth
same,Growth/no growth,[3]; Sample Concentration 0.313%,Growth
same,MIC,[4],1.25%
same,Growth/no growth,[4]; Sample Concentration 0.039%,Growth
same,Growth/no growth,[4]; Sample Concentration 0.078%,Growth
same,Growth/no growth,[4]; Sample Concentration 0.156%,Growth
same,Growth/no growth,[4]; Sample Concentration 0.313%,Growth
same,Growth/no growth,[4]; Sample Concentration 0.625%,Growth
same,MIC,[5]; Example 35,0.313%
same,Growth/no growth,[5]; Sample Concentration 0.039%,Growth
same,Growth/no growth,[5]; Sample Concentration 0.078%,Growth
same,Growth/no growth,[5]; Sample Concentration 0.156%,Growth
same,MIC,[6]; Example 35,2.5%
same,Growth/no growth,[6]; Sample Concentration 0.039%,Growth
same,Growth/no growth,[6]; Sample Concentration 0.078%,Growth
same,Growth/no growth,[6]; Sample Concentration 0.156%,Growth
same,Growth/no growth,[6]; Sample Concentration 0.313%,Growth
same,Growth/no growth,[6]; Sample Concentration 0.625%,Growth
same,Growth/no growth,[6]; Sample Concentration 1.25%,Growth
same,MIC,[7]; Example 35,0.313%
same,Growth/no growth,[7]; Sample Concentration 0.039%,Growth
same,Growth/no growth,[7]; Sample Concentration 0.078%,Growth
same,Growth/no growth,[7]; Sample Concentration 0.156%,Growth
"CCCCCCCCCCCCOC(=O)C(C)NC.Cl (stereo not shown) [Nex-59, Dodecyl 2-(methylamino)propanoate hydrochloride]",MIC,"[1]; Acinetobacter baumannii, ATCC19606, Table 19 summary, read-out: MIC",800 µg/mL
same,MIC,[1]; Example 35,0.08%
same,Growth/no growth,[1]; Sample Concentration 0.01%,Growth
same,Growth/no growth,[1]; Sample Concentration 0.02%,Growth
same,Growth/no growth,[1]; Sample Concentration 0.04%,Growth
same,MIC,"[2]; Bacillus subtilis, ATCC6633, Table 19 summary, read-out: MIC",400 µg/mL
same,MIC,[2]; Example 35,0.04%
same,Growth/no growth,[2]; Sample Concentration 0.01%,Growth
same,Growth/no growth,[2]; Sample Concentration 0.02%,Growth
same,MIC,"[8]; Enterococcus faecium, ATCC19434, Table 19 summary, read-out: MIC",400 µg/mL
same,MIC,[8]; Example 35,0.04%
same,Growth/no growth,[8]; Sample Concentration 0.01%,Growth
same,Growth/no growth,[8]; Sample Concentration 0.02%,Growth
same,MIC,"[3]; Escherichia coli, ATCC11229, Table 19 summary, read-out: MIC",800 µg/mL
same,MIC,[3]; Example 35,0.08%
same,Growth/no growth,[3]; Sample Concentration 0.01%,Growth
same,Growth/no growth,[3]; Sample Concentration 0.02%,Growth
same,Growth/no growth,[3]; Sample Concentration 0.04%,Growth
same,MIC,[4],0.16%
same,Growth/no growth,[4]; Sample Concentration 0.01%,Growth
same,Growth/no growth,[4]; Sample Concentration 0.02%,Growth
same,Growth/no growth,[4]; Sample Concentration 0.04%,Growth
same,Growth/no growth,[4]; Sample Concentration 0.08%,Growth
same,Growth/no growth,[4]; Sample Concentration 0.16%,No
same,Growth/no growth,[4]; Sample Concentration 0.32%,No
same,Growth/no growth,[4]; Sample Concentration 0.63%,No
same,Growth/no growth,[4]; Sample Concentration 1.25%,No
same,Growth/no growth,[4]; Sample Concentration 2.5%,No
same,MIC,[5]; Example 35,0.02%
same,MIC,"[5]; Micrococcus luteus, ATCC4698, Table 19 summary, read-out: MIC",200 µg/mL
same,Growth/no growth,[5]; Sample Concentration 0.01%,Growth
same,Growth/no growth,[5]; Sample Concentration 0.02%,No
same,Growth/no growth,[5]; Sample Concentration 0.04%,No
same,Growth/no growth,[5]; Sample Concentration 0.08%,No
same,Growth/no growth,[5]; Sample Concentration 0.16%,No
same,Growth/no growth,[5]; Sample Concentration 0.32%,No
same,Growth/no growth,[5]; Sample Concentration 0.63%,No
same,Growth/no growth,[5]; Sample Concentration 1.25%,No
same,Growth/no growth,[5]; Sample Concentration 2.5%,No
same,MIC,[6]; Example 35,0.04%
same,Growth/no growth,[6]; Sample Concentration 0.01%,Growth
same,Growth/no growth,[6]; Sample Concentration 0.02%,Growth
same,MIC,"[6]; Staphylococcus aureus, ATCC6538, Table 19 summary, read-out: MIC",400 µg/mL
same,MIC,[7]; Example 35,0.02%
same,Growth/no growth,[7]; Sample Concentration 0.01%,Growth
same,Growth/no growth,[7]; Sample Concentration 0.02%,No
same,Growth/no growth,[7]; Sample Concentration 0.04%,No
same,Growth/no growth,[7]; Sample Concentration 0.08%,No
same,Growth/no growth,[7]; Sample Concentration 0.16%,No
same,Growth/no growth,[7]; Sample Concentration 0.32%,No
same,Growth/no growth,[7]; Sample Concentration 0.63%,No
same,Growth/no growth,[7]; Sample Concentration 1.25%,No
same,Growth/no growth,[7]; Sample Concentration 2.5%,No
same,MIC,"[7]; Staphylococcus epidermidis, ATCC12228, Table 19 summary, read-out: MIC",200 µg/mL

# Reference: patent US20140357713A1, “ANTIMICROBIAL COMPOUNDS AND METHODS OF USE” (NexMed Holdings, Inc., priority 2012, published 2014)
